According to ChEMBL document CHEMBL1127391, “Generally applicable, convenient solid-phase synthesis and receptor affinities of octreotide analogs” (J Med Chem, 1994):

Target: Somatostatin receptor
Test: Dissociation constant binding to somatostatin receptor of At-20 mouse pituitary carcinoma cell membranes
Conditions: pituitary gland cell

Kd: 5.57 nM
SMILES: C[C@H](O)[C@H](CO)NC(=O)[C@H](CS)NC(=O)[C@@H](NC(=O)[C@H](CCCCN)NC(=O)[C@@H](Cc1c[nH]c2ccccc12)NC(=O)[C@H](Cc1ccccc1)NC(=O)[C@H](CS)NC(=O)[C@@H](Cc1ccccc1)NC(=O)CN(CCN(CCN(CC(=O)O)CC(=O)O)CC(=O)O)CC(=O)O)[C@@H](C)O
